# Laboratory results reported in ChEMBL document CHEMBL5316322, “Discovery and Characterization of the Topical Soft JAK Inhibitor CEE321 for Atopic Dermatitis” (J Med Chem, 2023).
# The source made the active and inactive calls. No cut-off for these calls is given here.
# Key:
# in vitro = details: human, liver microsomes
# Description: Microsomal stability in human liver microsomes assessed as intrinsic clearance
# JAK3/JAK1 [1] = molecular target: T1, JAK3/JAK1 (Homo sapiens, UniProt P23458+P52333); assay type: tissue-based, Blood
# Description: Inhibition of JAK1/JAK3 in human blood assessed as reduction of IL-2 stimulated STAT phosphorylation preincubated for 30 mins followed by IL-2 stimulation and measured after 15 mins by flow cytometry method
# [2] = molecular target: Non-receptor tyrosine-protein kinase TYK2 (Homo sapiens, UniProt P29597)
# Description: Inhibition of TYK2 (unknown origin) by caliper technology
# JAK3/JAK1 [3] = molecular target: T1, JAK3/JAK1; assay type: cell-based, M07E
# Description: Inhibition of JAK1/JAK3 in human M07E cells assessed as reduction of IL-15 stimulated STAT phosphorylation preincubated for 30 mins followed by IL-15 stimulation and measured after 15 mins by flow cytometry analysis
# [4] = molecular target: T2, Tyrosine-protein kinase JAK3 (Homo sapiens, UniProt P52333)
# T2 sequence (P52333 whole entry): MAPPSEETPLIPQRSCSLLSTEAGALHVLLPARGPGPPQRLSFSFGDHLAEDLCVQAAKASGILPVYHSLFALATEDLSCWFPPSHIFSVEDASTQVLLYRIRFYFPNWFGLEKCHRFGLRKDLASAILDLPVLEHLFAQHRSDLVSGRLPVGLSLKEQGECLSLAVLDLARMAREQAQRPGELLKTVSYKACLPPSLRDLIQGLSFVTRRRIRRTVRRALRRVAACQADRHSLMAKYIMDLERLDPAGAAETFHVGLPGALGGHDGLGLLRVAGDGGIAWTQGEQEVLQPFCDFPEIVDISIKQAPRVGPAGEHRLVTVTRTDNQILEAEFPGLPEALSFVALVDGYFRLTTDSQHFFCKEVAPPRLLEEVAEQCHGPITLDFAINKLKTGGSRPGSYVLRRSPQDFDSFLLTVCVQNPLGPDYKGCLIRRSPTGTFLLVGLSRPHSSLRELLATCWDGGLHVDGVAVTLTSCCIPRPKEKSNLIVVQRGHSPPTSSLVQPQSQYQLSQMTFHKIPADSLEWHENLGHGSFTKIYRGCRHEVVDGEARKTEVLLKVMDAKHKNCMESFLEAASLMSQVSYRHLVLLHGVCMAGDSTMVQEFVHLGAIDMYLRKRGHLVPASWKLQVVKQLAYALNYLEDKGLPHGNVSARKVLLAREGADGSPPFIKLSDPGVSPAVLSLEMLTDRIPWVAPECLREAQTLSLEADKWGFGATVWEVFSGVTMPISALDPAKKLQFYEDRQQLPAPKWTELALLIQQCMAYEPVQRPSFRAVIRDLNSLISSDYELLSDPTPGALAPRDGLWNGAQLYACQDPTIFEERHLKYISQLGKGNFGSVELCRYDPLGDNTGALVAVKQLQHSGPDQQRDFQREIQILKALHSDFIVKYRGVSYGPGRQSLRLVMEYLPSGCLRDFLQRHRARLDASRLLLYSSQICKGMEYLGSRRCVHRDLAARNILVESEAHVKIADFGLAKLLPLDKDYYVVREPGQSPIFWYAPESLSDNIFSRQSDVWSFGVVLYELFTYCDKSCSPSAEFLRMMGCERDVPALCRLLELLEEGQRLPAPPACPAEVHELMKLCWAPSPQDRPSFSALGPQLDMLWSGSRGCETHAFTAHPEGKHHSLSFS
# [5] = molecular target: Tyrosine-protein kinase JAK1 (Homo sapiens, UniProt P23458)
# [6] = Lipophilicity, log D of the compound; assay type: physicochemical; details: octanol/water
# [7] = molecular target: Tyrosine-protein kinase JAK2 (Homo sapiens, UniProt O60674)
# JAK1/TYK2 = JAK1/TYK2 (Homo sapiens, UniProt P23458+P29597); assay type: cell-based, M07E
# Description: Inhibition of JAK1/TYK2 in human M07E cells assessed as reduction of IFN alpha stimulated STAT phosphorylation preincubated for 30 mins followed by IFN alpha stimulation and measured after 15 mins by flow cytometry method
# Homo sapiens [8] = assay: Inhibition of IL4/IL13 induced MMP12 gene expression in topically administered human skin preincubated with compound overnight followed by IL4/IL13 stimulation and measured after 3 hrs by qRT-PCR analysis; assay type: functional, tissue-based; details: Skin of body, route top, time 11.0 hrs
# [9] = Drug concentration in topically administered human skin epidermis by MALDI-IMS analysis; assay type: ADME, tissue-based; details: topical_or_ocular, route top, read-out: Drug uptake
# [10] = Aqueous solubility of the compound at pH 6.8; assay type: physicochemical
# [11] = Clearance in minipig; assay type: ADME, Sus scrofa domesticus; details: pig, in vivo
# [12] = molecular target: T3, Janus Kinase (JAK) (Homo sapiens) (UniProt P52333+P23458+O60674+P29597); assay: Inhibition of JAK in human skin assessed as reduction in TARC release at 1 uM incubated for 24 hrs in the presence of IL4/IL13 by MSD analysis relative to control; assay type: tissue-based; details: Skin of body
# [13] = Microsomal stability in rat liver microsomes assessed as intrinsic clearance; assay type: ADME, Microsome
# [14] = Plasma protein binding in human; assay type: ADME, cell-free; details: read-out: PPB
# Homo sapiens [15] = assay: Inhibition of IL4/IL13 stimulated Eotaxin 3 gene expression in human fresh skin epidermal explant Franz cell model administered topically to human skin epidermis preincubated with compound overnight followed by IL4/IL13 stimulation and measured after 24 hrs by qRT-PCR analysis; assay type: functional, tissue-based; details: Skin of body, route top, time 32.0 hrs
# [16] = molecular target: Glycogen synthase kinase-3 beta (Homo sapiens, UniProt P49841); assay: Inhibition of GSK3B (unknown origin) by caliper microfluidic mobility shift technology
# Homo sapiens [17] = assay: Inhibition of IL4/IL13 stimulated MMP12 gene expression in human fresh skin epidermal explant Franz cell model administered topically to human skin epidermis preincubated with compound overnight followed by IL4/IL13 stimulation and measured after 24 hrs by qRT-PCR analysis; assay type: functional, tissue-based; details: Skin of body, route top, time 32.0 hrs
# Homo sapiens [18] = assay: Inhibition of IL4/IL13 stimulated TARC gene expression in human fresh skin epidermal explant Franz cell model administered topically to human skin epidermis preincubated with compound overnight followed by IL4/IL13 stimulation and measured after 24 hrs by qRT-PCR analysis; assay type: functional, tissue-based; details: Skin of body, route top, time 32.0 hrs
# [19] = Clearance in rat; assay type: ADME; details: in vivo
# [20] = Metabolic stability in minipig hepatocytes assessed as intrinsic clearance; assay type: ADME, cell-based, Sus scrofa domesticus, Hepatocyte; details: pig
# [21] = Drug excretion in iv dosed bile duct cannulated rat bile assessed as unchanged drug; assay type: ADME, organism-based; details: read-out: Drug excretion
# [22] = Drug uptake in topically administered human skin at 1 mm of depth by MALDI-IMS analysis; assay type: ADME, tissue-based, Skin of body; details: topical or ocular, route top, read-out: Drug uptake
# [23] = Half life in minipig; assay type: ADME, Sus scrofa domesticus; details: pig, in vivo
# [24] = […] in mouse 3T3 cells by neutral red uptake assay; assay type: toxicity, cell-based; details: nih3t3
# [25] = Half life in rat; assay type: ADME; details: in vivo
# [26] = Metabolic stability in rat hepatocytes assessed as intrinsic clearance; assay type: ADME, cell-based, Hepatocyte
# [27] = molecular target: T3, Janus Kinase (JAK) (Homo sapiens); assay: Inhibition of JAK in human skin assessed as reduction in TARC release at 10 uM incubated for 24 hrs in the presence of IL4/IL13 by MSD analysis relative to control; assay type: tissue-based; details: Skin of body
# [28] = molecular target: Mitogen-activated protein kinase kinase kinase kinase 4 (Homo sapiens, UniProt O95819); assay: Inhibition of MAP4K4 (unknown origin) by caliper microfluidic mobility shift technology
# [29] = Metabolic stability in human hepatocytes assessed as intrinsic clearance; assay type: ADME, cell-based, Hepatocyte
# [30] = Drug exposure in topically dosed minipig and measured for 14 days; assay type: ADME, organism-based, Sus scrofa domesticus; details: pig, in vivo, topical_or_ocular, 336 h; route top, time 14 day
# [31] = Drug uptake in topically administered human skin at 0.5 mm of depth by MALDI-IMS analysis; assay type: ADME, tissue-based, Skin of body; details: topical or ocular, route top, read-out: Drug uptake
# [32] = Drug excretion in iv dosed bile duct cannulated rat urine assessed as unchanged drug; assay type: ADME, organism-based; details: read-out: Drug excretion
# [33] = Microsomal stability in minipig liver microsomes assessed as intrinsic clearance; assay type: ADME, Sus scrofa domesticus, Microsome; details: pig
# [34] = molecular target: T4, Signal transducer and activator of transcription 6 (Homo sapiens) (UniProt P42226); assay: Inhibition of IL4/IL13 induced STAT6 phosphorylation in topically administered human skin assessed as reduction in phosphorylated STAT6 level preincubated with compound overnight followed by IL4/1L13 stimulation and measured after 3 hrs by Western blot analysis; assay type: tissue-based; details: Skin of body, route top, time 11.0 hrs
# T4 sequence (whole entry): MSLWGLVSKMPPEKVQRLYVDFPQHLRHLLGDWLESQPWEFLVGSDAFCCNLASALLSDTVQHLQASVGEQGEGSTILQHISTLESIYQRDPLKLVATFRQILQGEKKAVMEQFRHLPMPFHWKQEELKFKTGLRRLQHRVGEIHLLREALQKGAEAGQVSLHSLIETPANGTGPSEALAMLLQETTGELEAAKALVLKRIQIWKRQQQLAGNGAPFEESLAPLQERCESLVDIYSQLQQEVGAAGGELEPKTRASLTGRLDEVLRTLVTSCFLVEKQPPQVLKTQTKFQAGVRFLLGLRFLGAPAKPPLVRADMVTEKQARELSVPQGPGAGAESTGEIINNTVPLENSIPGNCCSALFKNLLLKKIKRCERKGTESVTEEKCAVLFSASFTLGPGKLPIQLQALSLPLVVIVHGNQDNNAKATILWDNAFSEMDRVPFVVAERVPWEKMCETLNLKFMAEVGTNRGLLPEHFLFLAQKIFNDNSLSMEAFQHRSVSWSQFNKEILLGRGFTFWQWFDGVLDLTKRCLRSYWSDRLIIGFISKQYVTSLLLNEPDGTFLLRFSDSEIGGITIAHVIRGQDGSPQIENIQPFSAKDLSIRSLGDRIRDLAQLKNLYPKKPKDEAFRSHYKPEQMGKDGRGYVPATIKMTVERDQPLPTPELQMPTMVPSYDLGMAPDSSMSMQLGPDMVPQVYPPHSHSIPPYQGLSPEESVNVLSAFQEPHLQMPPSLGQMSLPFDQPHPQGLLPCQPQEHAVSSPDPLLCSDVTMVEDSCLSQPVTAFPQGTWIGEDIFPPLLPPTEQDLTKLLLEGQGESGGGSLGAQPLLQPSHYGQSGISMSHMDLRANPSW
# Chain of Tyrosine-protein kinase JAK2 (O60674 whole entry): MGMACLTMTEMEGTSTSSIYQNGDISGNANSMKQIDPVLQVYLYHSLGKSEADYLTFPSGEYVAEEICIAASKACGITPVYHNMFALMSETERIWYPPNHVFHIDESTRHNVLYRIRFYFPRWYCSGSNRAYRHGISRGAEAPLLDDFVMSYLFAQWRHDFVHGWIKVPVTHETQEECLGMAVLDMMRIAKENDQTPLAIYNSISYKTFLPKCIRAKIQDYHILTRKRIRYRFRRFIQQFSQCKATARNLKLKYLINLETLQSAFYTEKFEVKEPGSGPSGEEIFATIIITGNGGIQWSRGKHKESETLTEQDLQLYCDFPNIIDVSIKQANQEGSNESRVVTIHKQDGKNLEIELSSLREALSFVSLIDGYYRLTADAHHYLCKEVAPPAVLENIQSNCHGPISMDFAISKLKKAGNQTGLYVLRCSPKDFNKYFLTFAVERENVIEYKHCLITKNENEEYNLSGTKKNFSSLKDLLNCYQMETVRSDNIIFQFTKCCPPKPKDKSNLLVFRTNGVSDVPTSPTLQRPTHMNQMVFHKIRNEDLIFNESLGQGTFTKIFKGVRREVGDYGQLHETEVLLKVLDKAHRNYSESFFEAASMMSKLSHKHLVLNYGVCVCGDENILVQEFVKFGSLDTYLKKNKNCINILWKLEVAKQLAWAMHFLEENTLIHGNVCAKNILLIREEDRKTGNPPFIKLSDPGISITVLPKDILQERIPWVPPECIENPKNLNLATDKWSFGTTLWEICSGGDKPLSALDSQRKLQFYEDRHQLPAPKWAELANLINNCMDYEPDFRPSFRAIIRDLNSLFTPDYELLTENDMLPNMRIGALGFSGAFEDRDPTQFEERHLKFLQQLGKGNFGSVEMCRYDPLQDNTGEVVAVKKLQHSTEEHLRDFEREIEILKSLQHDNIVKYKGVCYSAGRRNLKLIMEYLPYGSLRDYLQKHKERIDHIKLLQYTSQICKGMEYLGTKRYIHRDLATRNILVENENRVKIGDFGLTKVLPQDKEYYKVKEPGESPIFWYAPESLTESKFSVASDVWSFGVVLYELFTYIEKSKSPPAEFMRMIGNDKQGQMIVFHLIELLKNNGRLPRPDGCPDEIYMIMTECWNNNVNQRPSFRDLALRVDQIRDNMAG
# Chain of JAK1/TYK2 (P23458 whole entry): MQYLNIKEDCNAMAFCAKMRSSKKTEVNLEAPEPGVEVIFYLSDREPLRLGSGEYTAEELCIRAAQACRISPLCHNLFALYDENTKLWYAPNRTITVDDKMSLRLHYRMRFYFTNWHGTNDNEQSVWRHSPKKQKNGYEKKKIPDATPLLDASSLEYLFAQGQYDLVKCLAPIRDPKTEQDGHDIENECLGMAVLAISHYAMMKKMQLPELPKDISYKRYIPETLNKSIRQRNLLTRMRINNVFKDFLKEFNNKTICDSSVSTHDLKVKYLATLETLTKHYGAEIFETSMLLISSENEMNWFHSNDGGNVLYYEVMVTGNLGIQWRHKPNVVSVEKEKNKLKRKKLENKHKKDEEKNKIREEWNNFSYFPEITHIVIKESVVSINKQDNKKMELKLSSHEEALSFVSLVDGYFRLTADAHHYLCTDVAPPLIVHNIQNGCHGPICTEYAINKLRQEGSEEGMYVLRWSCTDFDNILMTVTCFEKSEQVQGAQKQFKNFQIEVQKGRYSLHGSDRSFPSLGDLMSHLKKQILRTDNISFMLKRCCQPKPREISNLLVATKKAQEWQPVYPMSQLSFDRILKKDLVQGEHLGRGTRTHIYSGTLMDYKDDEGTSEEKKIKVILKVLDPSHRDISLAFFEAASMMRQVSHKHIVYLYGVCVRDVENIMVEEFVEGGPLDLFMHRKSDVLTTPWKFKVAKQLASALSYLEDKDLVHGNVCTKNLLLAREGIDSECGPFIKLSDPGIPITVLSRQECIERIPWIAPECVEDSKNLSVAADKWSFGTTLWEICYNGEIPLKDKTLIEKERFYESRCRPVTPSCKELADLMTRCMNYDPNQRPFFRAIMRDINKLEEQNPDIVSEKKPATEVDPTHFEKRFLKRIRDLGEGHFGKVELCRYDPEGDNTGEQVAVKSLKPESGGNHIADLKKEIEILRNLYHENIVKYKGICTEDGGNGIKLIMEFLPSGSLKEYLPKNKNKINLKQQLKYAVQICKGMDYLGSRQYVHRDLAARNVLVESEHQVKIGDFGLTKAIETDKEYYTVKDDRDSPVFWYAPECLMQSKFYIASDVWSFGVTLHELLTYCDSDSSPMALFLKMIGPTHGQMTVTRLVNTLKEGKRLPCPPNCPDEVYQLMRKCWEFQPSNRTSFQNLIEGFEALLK
# Chain of JAK1/TYK2 (P29597 whole entry): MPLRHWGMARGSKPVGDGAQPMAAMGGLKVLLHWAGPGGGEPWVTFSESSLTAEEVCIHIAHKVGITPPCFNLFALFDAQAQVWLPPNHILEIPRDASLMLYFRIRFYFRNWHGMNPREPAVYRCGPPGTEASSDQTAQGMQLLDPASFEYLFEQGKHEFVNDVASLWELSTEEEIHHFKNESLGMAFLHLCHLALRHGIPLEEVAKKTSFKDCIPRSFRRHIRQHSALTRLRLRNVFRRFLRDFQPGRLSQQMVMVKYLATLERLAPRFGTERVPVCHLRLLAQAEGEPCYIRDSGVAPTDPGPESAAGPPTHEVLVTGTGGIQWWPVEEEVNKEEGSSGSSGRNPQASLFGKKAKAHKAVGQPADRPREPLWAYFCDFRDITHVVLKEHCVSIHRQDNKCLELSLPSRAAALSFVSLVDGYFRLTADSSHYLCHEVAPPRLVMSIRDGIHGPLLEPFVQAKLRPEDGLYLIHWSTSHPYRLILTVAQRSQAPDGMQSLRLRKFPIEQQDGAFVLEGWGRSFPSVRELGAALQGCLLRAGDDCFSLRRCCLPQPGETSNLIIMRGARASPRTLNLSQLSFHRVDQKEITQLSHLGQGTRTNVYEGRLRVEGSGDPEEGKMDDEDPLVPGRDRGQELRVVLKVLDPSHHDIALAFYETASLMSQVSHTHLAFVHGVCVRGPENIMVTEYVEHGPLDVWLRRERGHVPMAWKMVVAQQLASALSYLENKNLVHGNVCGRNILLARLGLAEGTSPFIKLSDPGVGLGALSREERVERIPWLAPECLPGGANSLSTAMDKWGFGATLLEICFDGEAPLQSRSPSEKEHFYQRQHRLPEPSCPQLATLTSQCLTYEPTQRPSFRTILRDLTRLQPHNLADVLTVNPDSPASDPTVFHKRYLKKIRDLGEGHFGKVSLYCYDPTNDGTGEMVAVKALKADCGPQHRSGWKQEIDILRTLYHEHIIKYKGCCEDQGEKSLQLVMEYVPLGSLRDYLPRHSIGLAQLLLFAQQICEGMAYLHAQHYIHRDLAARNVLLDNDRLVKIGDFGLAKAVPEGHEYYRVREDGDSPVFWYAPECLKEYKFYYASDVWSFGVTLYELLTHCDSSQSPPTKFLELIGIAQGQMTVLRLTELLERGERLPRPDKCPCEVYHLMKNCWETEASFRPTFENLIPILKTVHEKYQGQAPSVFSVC
# Chain of Tyrosine-protein kinase JAK1 (P23458 whole entry): as the sequence (P23458 whole entry) above
# Chain of Non-receptor tyrosine-protein kinase TYK2 (P29597 whole entry): as the sequence (P29597 whole entry) above
# T1 sequence (P23458 whole entry, one chain of several): as the sequence (P23458 whole entry) above
# T3 sequence (O60674 whole entry, looked up, one chain of several): as the sequence (O60674 whole entry) above
# T3 sequence (P23458 whole entry, looked up, one chain of several): as the sequence (P23458 whole entry) above
# T3 sequence (P29597 whole entry, looked up, one chain of several): as the sequence (P29597 whole entry) above
# Chain of Glycogen synthase kinase-3 beta (P49841 whole entry): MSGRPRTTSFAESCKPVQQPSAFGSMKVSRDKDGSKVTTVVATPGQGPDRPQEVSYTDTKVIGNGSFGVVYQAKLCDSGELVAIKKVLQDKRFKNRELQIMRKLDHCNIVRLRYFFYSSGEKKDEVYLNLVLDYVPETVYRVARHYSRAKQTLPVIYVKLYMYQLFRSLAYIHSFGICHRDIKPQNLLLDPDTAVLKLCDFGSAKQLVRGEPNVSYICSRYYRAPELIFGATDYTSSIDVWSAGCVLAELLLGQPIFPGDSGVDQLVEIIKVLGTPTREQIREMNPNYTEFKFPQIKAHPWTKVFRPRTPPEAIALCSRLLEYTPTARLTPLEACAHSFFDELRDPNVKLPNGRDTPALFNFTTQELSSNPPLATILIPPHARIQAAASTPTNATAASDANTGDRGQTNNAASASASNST
compound,measurement,setting,value
CC[C@@H]1CN(C(=O)NCC(F)(F)F)C[C@@H]1c1cnc2cnc3[nH]ccc3n12 [UPADACITINIB],microsomal CLint,in vitro,< 25 µL/min/mg
N#CC[C@H](C1CCCC1)n1cc(-c2ncnc3[nH]ccc23)cn1 [RUXOLITINIB],microsomal CLint,in vitro,40 µL/min/mg
COc1ccccc1Nc1cc(Nc2cccc(C)n2)ncc1C(N)=O,IC50,JAK3/JAK1 [1],994 nM
same,IC50,[2],15 nM
same,IC50,JAK3/JAK1 [3],85 nM
same,IC50,[4],18 nM
same,IC50,[5],14 nM
same,microsomal CLint,in vitro,179 µL/min/mg
same,logD,[6],3.7
same,IC50,[7],14 nM
same,IC50,JAK1/TYK2,33 nM
Cc1cccc(Nc2cc(Nc3ccccc3Cl)c(C(N)=O)cn2)n1,inhibition,Homo sapiens [8],Active
same,concentration,[9],13 µM
same,solubility,[10],0.2 µM
same,CL,[11],52 mL/min/g
same,IC50,JAK3/JAK1 [1],2350 nM
same,inhibition,[12],74%
same,CLH,[13],204 mL·min/g
same,IC50,[2],50 nM
same,fraction unbound,[14],< 0.01
same,inhibition,Homo sapiens [15],Active
same,IC50,[16],380 nM
same,inhibition,Homo sapiens [17],Active
same,inhibition,Homo sapiens [18],Active
same,IC50,JAK3/JAK1 [3],54 nM
same,IC50,[4],59 nM
same,clearance,[19],82 mL/min/kg
same,CLH,[20],38 mL·min/g
same,dose excreted,[21],< 1%
same,concentration at 1000 µM,[22],1680 nM
same,half-life,[23],60 min
same,IC50,[5],50 nM
same,microsomal CLint,in vitro,166 µL/min/mg
same,Activity,[24],Non-Toxic
same,half-life,[25],30 min
same,logD,[6],4.3
same,CLH,[26],94 mL·min/g
same,inhibition,[27],100%
same,IC50,[28],110 nM
same,CLH,[29],47 mL·min/g
same,Drug uptake,[30],< 1 nM
same,IC50,[7],48 nM
same,concentration at 500 µM,[31],3.51 µM
same,dose excreted,[32],1.3%
same,CLH,[33],67 mL·min/g
same,inhibition,[34],Active
same,IC50,JAK1/TYK2,85 nM
COc1ccccc1Nc1cc(Nc2cccnn2)ncc1C(N)=O,IC50,JAK3/JAK1 [1],486 nM
same,IC50,[2],19 nM
same,IC50,JAK3/JAK1 [3],66 nM
same,IC50,[4],39 nM
same,IC50,[5],29 nM
same,microsomal CLint,in vitro,127 µL/min/mg
same,logD,[6],2.4
same,IC50,[7],29 nM
same,IC50,JAK1/TYK2,51 nM
COc1ccccc1Nc1cc(Nc2ccccn2)ncc1C(N)=O,IC50,JAK3/JAK1 [1],340 nM
same,IC50,[2],6 nM
same,IC50,JAK3/JAK1 [3],45 nM
same,IC50,[4],11 nM
same,IC50,[5],9 nM
same,microsomal CLint,in vitro,210 µL/min/mg
same,logD,[6],3.4
same,IC50,[7],8 nM
same,IC50,JAK1/TYK2,31 nM
C[C@H]1CN(C(=O)CC#N)[C@]12CCN(c1ncnc3[nH]ccc13)C2 [DELGOCITINIB],microsomal CLint,in vitro,< 25 µL/min/mg
CCS(=O)(=O)N1CC(CC#N)(n2cc(-c3ncnc4[nH]ccc34)cn2)C1 [BARICITINIB],microsomal CLint,in vitro,< 25 µL/min/mg
NC(=O)c1cnc(Nc2ccccn2)cc1Nc1ccccc1Cl,IC50,JAK3/JAK1 [1],564 nM
same,IC50,[2],11 nM
same,fraction unbound,[14],< 0.01
same,IC50,JAK3/JAK1 [3],41 nM
same,IC50,[4],10 nM
same,IC50,[5],22 nM
same,microsomal CLint,in vitro,227 µL/min/mg
same,logD,[6],3.7
same,IC50,[7],27 nM
same,IC50,JAK1/TYK2,84 nM
Cn1cc(Nc2nccc(N3CC4CCC(C3)N4C(=O)[C@@H]3CC3(F)F)n2)cn1,microsomal CLint,in vitro,< 25 µL/min/mg
